Measured values taken from PubChem BioAssay AID330 (DTP/NCI, 2004).
Several values for one entry are separate records, joined by “and”; a condition that tells them apart may be missing. Equal entries are not always repeated. Inconclusive results and toxic doses are left out. The calls were made as follows: active = survival T/C of 150% or more; inactive = T/C below 125% in these data.

System: P388 leukemia ip, CD2F1 mice, survival T/C
Experiment: NCI In Vivo Anticancer Drug Screen. Data for tumor model P388 Leukemia (intraperitoneal) in CD2F1 (CDF1) mice
Settings: endpoint: median survival time, higher = longer survival
Summary of the method: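 Mice carrying the transplanted tumor received test compound or vehicle. Survival was recorded in each group, and the value is the treated-group measurement divided by that of the vehicle-treated control group.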

[1] = dose: 50.0 mg/kg/injection, schedule: Q01DX009 (ip), vehicle: saline
[2] = dose: 100.0 mg/kg/injection, schedule: Q01DX009 (ip), vehicle: saline
[3] = dose: 200.0 mg/kg/injection, schedule: Q01DX009 (ip), vehicle: saline
[4] = dose: 50.0 mg/kg/injection, schedule: Q01DX005 (ip), vehicle: saline with Tween-80
[5] = dose: 100.0 mg/kg/injection, schedule: Q01DX005 (ip), vehicle: saline with Tween-80
[6] = dose: 200.0 mg/kg/injection, schedule: Q01DX005 (ip), vehicle: saline with Tween-80
[7] = dose: 50.0 mg/kg/injection, schedule: Q01DX005 (ip), vehicle: Klucel (hydroxypropylcellulose) (HPC)
[8] = dose: 100.0 mg/kg/injection, schedule: Q01DX005 (ip), vehicle: Klucel (hydroxypropylcellulose) (HPC)
[9] = dose: 200.0 mg/kg/injection, schedule: Q01DX005 (ip), vehicle: Klucel (hydroxypropylcellulose) (HPC)
[10] = dose: 50.0 mg/kg/injection, schedule: Q01DX009 (ip), vehicle: saline with Tween-80
[11] = dose: 100.0 mg/kg/injection, schedule: Q01DX009 (ip), vehicle: saline with Tween-80
[12] = dose: 200.0 mg/kg/injection, schedule: Q01DX009 (ip), vehicle: saline with Tween-80
[13] = dose: 60.0 mg/kg/injection, schedule: Q01DX005 (ip), vehicle: saline with Tween-80
[14] = dose: 120.0 mg/kg/injection, schedule: Q01DX005 (ip), vehicle: saline with Tween-80
[15] = dose: 240.0 mg/kg/injection, schedule: Q01DX005 (ip), vehicle: saline with Tween-80
[16] = dose: 50.0 mg/kg/injection, schedule: Q01DX009 (ip), vehicle: Klucel (hydroxypropylcellulose) (HPC)
[17] = dose: 100.0 mg/kg/injection, schedule: Q01DX009 (ip), vehicle: Klucel (hydroxypropylcellulose) (HPC)
[18] = dose: 200.0 mg/kg/injection, schedule: Q01DX009 (ip), vehicle: Klucel (hydroxypropylcellulose) (HPC)

Measured: T/C

COc1cccc(C(=O)OCCC(C)C)c1O
inactive: [1] 110 % of control | [2] 110 % of control and 92 % of control | [3] 104 % of control and 117 % of control

COC(=O)C1(OC)C(=O)NC2=C1C(=O)c1ccccc1C2=O (stereo not given)
inactive: [4] 94 % of control | [5] 105 % of control | [6] 106 % of control

CCC(=O)N/C(N)=N\C(N)=S
inactive: [7] 101 % of control | [8] 96 % of control | [9] 104 % of control

COc1c2occc2cc2ccc(=O)oc12
inactive: dose: 8.0 mg/kg/injection, schedule: Q01DX009 (ip), vehicle: saline with Tween-80 89 % of control | dose: 11.0 mg/kg/injection, schedule: Q01DX009 (ip), vehicle: saline with Tween-80 111 % of control | dose: 16.0 mg/kg/injection, schedule: Q01DX009 (ip), vehicle: saline with Tween-80 87 % of control | dose: 22.0 mg/kg/injection, schedule: Q01DX009 (ip), vehicle: saline with Tween-80 102 % of control | dose: 25.0 mg/kg/injection, schedule: Q01DX009 (ip), vehicle: saline with Tween-80 121 % of control | dose: 32.0 mg/kg/injection, schedule: Q01DX009 (ip), vehicle: saline with Tween-80 100 % of control | dose: 44.0 mg/kg/injection, schedule: Q01DX009 (ip), vehicle: saline with Tween-80 104 % of control | [10] 116 % of control | dose: 64.0 mg/kg/injection, schedule: Q01DX009 (ip), vehicle: saline with Tween-80 88 % of control | dose: 88.0 mg/kg/injection, schedule: Q01DX009 (ip), vehicle: saline with Tween-80 107 % of control | [11] 117 % of control | dose: 128.0 mg/kg/injection, schedule: Q01DX009 (ip), vehicle: saline with Tween-80 106 % of control | dose: 256.0 mg/kg/injection, schedule: Q01DX009 (ip), vehicle: saline with Tween-80 94 % of control

CC(C)C([N+](C)(C)C)P(=O)([O-])O (stereo not given)
inactive: [11] 100 % of control | [12] 90 % of control

CC1CCCCN1CCCNC(=O)Nc1ccc(Cc2ccc(NC(=O)NCCCN3CCCCC3C)cc2)cc1 (stereo not given)
inactive: dose: 0.79 mg/kg/injection, schedule: Q01DX009 (ip), vehicle: Klucel (hydroxypropylcellulose) (HPC) 95 % of control | dose: 1.56 mg/kg/injection, schedule: Q01DX009 (ip), vehicle: Klucel (hydroxypropylcellulose) (HPC) 97 % of control

CC(C)C1=CC23CCC4C(C)(C(=O)O)CCCC4(C)C2CC1OO3 (stereo not given)
inactive: dose: 100.0 mg/kg/injection, schedule: Q01DX009 (ip), vehicle: saline sonified 95 % of control | dose: 200.0 mg/kg/injection, schedule: Q01DX009 (ip), vehicle: saline sonified 100 % of control | dose: 400.0 mg/kg/injection, schedule: Q01DX009 (ip), vehicle: saline sonified 100 % of control

COC(=O)CC(C(=O)OC)C(C(=O)OC)C(C(=O)OC)C(CC(=O)OC)C(=O)OC (stereo not given)
inactive: dose: 100.0 mg/kg/injection, schedule: Q04DX002 (ip), vehicle: saline with Tween-80 98 % of control | dose: 200.0 mg/kg/injection, schedule: Q04DX002 (ip), vehicle: saline with Tween-80 104 % of control | dose: 400.0 mg/kg/injection, schedule: Q04DX002 (ip), vehicle: saline with Tween-80 102 % of control

N[C@@H](Cc1ccccc1)C(=O)NCCNC(=O)[C@@H](N)Cc1ccccc1
inactive: [13] 103 % of control | [14] 100 % of control | [15] 104 % of control

CCCCCC(=O)OC(C)Cl (stereo not given)
inactive: [1] 99 % of control | [2] 97 % of control | [3] 106 % of control

CC1CCC2(C(=O)O)CCC3(C)C(=CCC4C5(C)CCC(O)C(C)(C)C5CCC43C)C2C1C (stereo not given)
inactive: dose: 22.0 mg/kg/injection, schedule: Q01DX010 (ip), vehicle: acetone 108 % of control | dose: 35.0 mg/kg/injection, schedule: Q01DX010 (ip), vehicle: acetone 95 % of control

COC(=O)C(C)NC(=O)C(C)NC(=O)C(C)NC(C)=O (stereo not given)
inactive: [7] 102 % of control | [8] 94 % of control | [9] 100 % of control

COc1ccc(CNC(=O)C2C(=O)C(=O)N(Cc3ccc(OC)c(OC)c3)C2=O)cc1OC (stereo not given)
inactive: [16] 105 % of control | [17] 96 % of control | [18] 103 % of control

COc1ccc(/C=C/C(=O)C(C)(C)Br)cc1
inactive: [13] 101 % of control | [14] 101 % of control | [15] 103 % of control

O=S1(=O)C(c2cccc(C(F)(F)F)c2)=C(O)c2cc3ccccc3nc21
inactive: dose: 6.25 mg/kg/injection, schedule: Q01DX009 (ip), vehicle: saline + Tween-80 + alcohol 105 % of control | dose: 12.5 mg/kg/injection, schedule: Q01DX009 (ip), vehicle: saline + Tween-80 + alcohol 105 % of control | dose: 25.0 mg/kg/injection, schedule: Q01DX009 (ip), vehicle: saline + Tween-80 + alcohol 100 % of control and 87 % of control | dose: 50.0 mg/kg/injection, schedule: Q01DX009 (ip), vehicle: saline + Tween-80 + alcohol 99 % of control | dose: 100.0 mg/kg/injection, schedule: Q01DX009 (ip), vehicle: saline + Tween-80 + alcohol 99 % of control

CC1SC(=S)N(c2ccccc2)C1=O (stereo not given)
inactive: [10] 104 % of control | dose: 50.0 mg/kg/injection, schedule: Q04DX003 (ip), vehicle: saline with Tween-80 112 % of control | [11] 100 % of control | dose: 100.0 mg/kg/injection, schedule: Q04DX003 (ip), vehicle: saline with Tween-80 108 % of control | [12] 109 % of control | dose: 200.0 mg/kg/injection, schedule: Q04DX003 (ip), vehicle: saline with Tween-80 108 % of control

OC1CC2CCCCC2CC1Cl (stereo not given)
inactive: [16] 90 % of control | [17] 100 % of control | [18] 100 % of control

C/C(=N\NC(=S)N1CCN(C)CC1)c1ccccn1
inactive: dose: 25.0 mg/kg/injection, schedule: Q04DX003 (ip), vehicle: saline 104 % of control | dose: 50.0 mg/kg/injection, schedule: Q04DX003 (ip), vehicle: saline 107 % of control | dose: 100.0 mg/kg/injection, schedule: Q04DX003 (ip), vehicle: saline 101 % of control

COc1cc2c(cc1OC)[C@H](c1cc(Br)c(O)c(OC)c1)[C@H]1C(=O)OCC1C2 (stereo not given in full)
inactive: dose: 12.5 mg/kg/injection, schedule: Q01DX005 (ip), vehicle: saline with Tween-80 87 % of control | dose: 25.0 mg/kg/injection, schedule: Q01DX005 (ip), vehicle: saline with Tween-80 92 % of control | [4] 92 % of control | [5] 88 % of control | [6] 89 % of control

N#CCCSC(=S)C1CCCCC1=N (stereo not given)
inactive: dose: 50.0 mg/kg/injection, schedule: Q01DX009 (ip), vehicle: saline + alcohol 109 % of control | dose: 100.0 mg/kg/injection, schedule: Q01DX009 (ip), vehicle: saline + alcohol 111 % of control | dose: 200.0 mg/kg/injection, schedule: Q01DX009 (ip), vehicle: saline + alcohol 109 % of control

N=C(N)Cc1ccc(NC(=O)c2ccc(C(=O)Nc3ccc(CC(=N)N)cc3)cc2)cc1
inactive: dose: 9.37 mg/kg/injection, schedule: Q01DX001 (ip), vehicle: saline with Tween-80 120 % of control | dose: 18.75 mg/kg/injection, schedule: Q01DX001 (ip), vehicle: saline with Tween-80 120 % of control | dose: 37.5 mg/kg/injection, schedule: Q01DX001 (ip), vehicle: saline with Tween-80 115 % of control

C=C(C)C12CC(C)C34OC(CCCCCCCCCCC)(OC1C3C1OC1(CO)C(O)C1(O)C(=O)C(C)=CC14C)O2 (stereo not given)
inactive: dose: 0.05 mg/kg/injection, schedule: Q01DX009 (ip), vehicle: distilled water + Tween-80 99 % of control and 100 % of control | dose: 0.06 mg/kg/injection, schedule: Q01DX009 (ip), vehicle: other 100 % of control | dose: 0.1 mg/kg/injection, schedule: Q01DX009 (ip), vehicle: distilled water + Tween-80 100 % of control and 96 % of control | dose: 0.12 mg/kg/injection, schedule: Q01DX009 (ip), vehicle: other 104 % of control | dose: 0.2 mg/kg/injection, schedule: Q01DX009 (ip), vehicle: distilled water + Tween-80 103 % of control and 96 % of control | dose: 0.4 mg/kg/injection, schedule: Q01DX009 (ip), vehicle: distilled water + Tween-80 105 % of control and 119 % of control | dose: 25.0 micrograms/kg/injection, schedule: Q01DX009 (ip), vehicle: other 112 % of control | dose: 50.0 micrograms/kg/injection, schedule: Q01DX009 (ip), vehicle: other 112 % of control
